Converted amounts (≈) assume the structure as drawn.
Tested on: Human alphaherpesvirus 1
Assay: The minimal inhibitory concentration required to inhibit HSV-1 virus in MRC5 cells
Type: functional

Row | SMILES | MIC
1 | Nc1nc(O)c2ccn([C@@H]3C[C@H](CO)[C@@H](O)[C@@H]3O)c2n1 | 25 mg/L (≈ 89.2 µM)
2 | Nc1nc(O)c2ccn([C@@H]3C[C@H](CO)[C@H](O)[C@@H]3O)c2n1 | 100 mg/L (≈ 357 µM)
